Values after ≈ are worked out from the molar mass of the structure shown.
Key:
Assay in all cases: MIC, microdilution broth method (NCCLS)
Type in all cases: cell-based
Details in all cases: 35° C., 16-20 hours
[1] = tested on: E. coli OC2605
Description: (§1) Minimal inhibitory concentration (MIC) has been an indicator of in vitro antibacterial activity widely used in the art. The in vitro antimicrobial activity of the compounds was determined by the microdilution broth method following the test method from the National Committee for Clinical Laboratory Standards (NCCLS). This method is described in the NCCLS Document M7-A4, Vol.17, No.2, “Methods for Dilution Antimicrobial Susceptibility Test for Bacteria that Grow Aerobically—Fourth Edition”, which is incorporated herein by reference.
(§2) In this method two-fold serial dilutions of drug in cation adjusted Mueller-Hinton broth are added to wells in microdilution trays. The test organisms are prepared by adjusting the turbidity of actively growing broth cultures so that the final concentration of test organism after it is added to the wells is approximately 5×10^4 CFU/well.
(§3) Following inoculation of the microdilution trays, the trays are incubated at 35° C. for 16-20 hours and then read. […] The amount of growth in the wells containing the test compound is compared with the amount of growth in the growth-control wells (no test compound) used in each tray. As set forth in Table 1, compounds of the present invention were tested against a variety of Gram positive and Gram negative pathogenic bacteria resulting in a range of activities depending on the organism tested.

[2] = tested on: E. faecalis ATCC29212
Description: as §1, §2, §3

[3] = tested on: H. influenzae ATCC49247
Description: as §1, §2, §3

[4] = tested on: S. aureus ATCC29213
Description: as §1, §2, §3

[5] = tested on: S. pneumoniae ATCC49619
Description: as §1, §2, §3

MIC (μg/mL) A [1] [µg/mL] | MIC (μg/mL) C [2] [µg/mL] | MIC (μg/mL) E [3] [µg/mL] | MIC (μg/mL) B [4] [µg/mL] | MIC (μg/mL) D [5] [µg/mL] | MIC ([1]; Escherichia coli) [mg/L] | MIC ([2]; Enterococcus faecalis) [mg/L] | MIC ([3]; Haemophilus influenzae) [mg/L] | MIC ([4]; Staphylococcus aureus) [mg/L] | MIC ([5]; Streptococcus pneumoniae) [mg/L] | Compound
>16 | 1 (≈ 1.2 µM) | 8 (≈ 9.6 µM) | 2 (≈ 2.4 µM) | 0.25 (≈ 0.3 µM) | – | – | – | – | – | CCC1OC(=O)C(C)C(=O)C(C)C(OC2OC(C)CC(N(C)C)C2O)C(C)(OC(=O)NCc2ccc(C=Cc3ccccc3)cc2)CC(C)C(=O)C(C)C2CC(=O)OC12C (stereo not shown) [Compound 21]
16 (≈ 19.1 µM) | 0.25 (≈ 0.299 µM) | 4 (≈ 4.79 µM) | 1 (≈ 1.2 µM) | 0.06 (≈ 0.0718 µM) | – | – | – | – | – | CCC1OC(=O)C(C)C(=O)C(C)C(OC2OC(C)CC(N(C)C)C2O)C(C)(OC(=O)NCC=Cc2ccc(Br)cc2)CC(C)C(=O)C(C)C2CC(=O)OC12C (stereo not shown) [Compound 22]
>16 | 2 (≈ 1.94 µM) | >16 | 8 (≈ 7.76 µM) | 2 (≈ 1.94 µM) | – | – | – | – | – | CCC1OC(=O)C(C)C(=O)C(C)C(OC2OC(C)CC(N(C)C)C2O)C(C)(OC(=O)N(CC=Cc2ccc(Br)cc2)CC=Cc2ccc(Br)cc2)CC(C)C(=O)C(C)C2CC(=O)OC12C (stereo not shown) [Compound 23]
>16 | 0.12 (≈ 0.149 µM) | 8 (≈ 9.9 µM) | 1 (≈ 1.24 µM) | 0.06 (≈ 0.0743 µM) | – | – | – | – | – | CCC1OC(=O)C(C)C(=O)C(C)C(OC2OC(C)CC(N(C)C)C2O)C(C)(OC(=O)NCc2ccc(-c3ccccn3)cc2)CC(C)C(=O)C(C)C2CC(=O)OC12C (stereo not shown) [Compound 26]
>16 | 0.5 (≈ 0.639 µM) | 8 (≈ 10.2 µM) | 2 (≈ 2.56 µM) | 0.12 (≈ 0.153 µM) | – | – | – | – | – | CCC1OC(=O)C(C)C(=O)C(C)C(OC2OC(C)CC(N(C)C)C2O)C(C)(OC(=O)NCc2ccc3ccccc3n2)CC(C)C(=O)C(C)C2CC(=O)OC12C (stereo not shown) [Compound 28]
>16 | 0.25 (≈ 0.3 µM) | 2 (≈ 2.4 µM) | 0.5 (≈ 0.6 µM) | 0.06 (≈ 0.0719 µM) | – | – | – | – | – | CCC1OC(=O)C(C)C(=O)C(C)C(OC2OC(C)CC(N(C)C)C2O)C(C)(OC(=O)NCC=Cc2ccc(-c3ccccn3)cc2)CC(C)C(=O)C(C)C2CC(=O)OC12C (stereo not shown) [Compound 29]
16 (≈ 19.8 µM) | 0.06 (≈ 0.0743 µM) | >16 | 0.25 (≈ 0.309 µM) | 0.03 (≈ 0.0371 µM) | – | – | – | – | – | CCC1OC(=O)C(C)C(=O)C(C)C(OC2OC(C)CC(N(C)C)C2O)C(C)(OC(=O)NCC=Cc2ccc3cccnc3c2)CC(C)C(=O)C(C)C2CC(=O)OC12C (stereo not shown) [Compound 31]
>16 | 0.25 (≈ 0.293 µM) | 8 (≈ 9.38 µM) | 0.5 (≈ 0.586 µM) | 0.06 (≈ 0.0703 µM) | – | – | – | – | – | CCC1OC(=O)C(C)C(=O)C(C)C(OC2OC(C)CC(N(C)C)C2O)C(C)(OC(=O)NCC=Cc2ccc(-c3ncccn3)cc2F)CC(C)C(=O)C(C)C2CC(=O)OC12C (stereo not shown) [Compound 32]
>16 | 0.5 (≈ 0.66 µM) | 8 (≈ 10.6 µM) | 2 (≈ 2.64 µM) | 0.12 (≈ 0.158 µM) | – | – | – | – | – | CCC1OC(=O)C(C)C(=O)C(C)C(OC2OC(C)CC(N(C)C)C2O)C(C)(OC(=O)NCC=Cc2ccccn2)CC(C)C(=O)C(C)C2CC(=O)OC12C (stereo not shown) [Compound 33]
>16 | 0.12 (≈ 0.158 µM) | 2 (≈ 2.64 µM) | 0.5 (≈ 0.66 µM) | 0.06 (≈ 0.0792 µM) | – | – | – | – | – | CCC1OC(=O)C(C)C(=O)C(C)C(OC2OC(C)CC(N(C)C)C2O)C(C)(OC(=O)NCC=Cc2cccnc2)CC(C)C(=O)C(C)C2CC(=O)OC12C (stereo not shown) [Compound 34]
>16 | 0.25 (≈ 0.3 µM) | 4 (≈ 4.8 µM) | 0.5 (≈ 0.6 µM) | 0.12 (≈ 0.144 µM) | – | – | – | – | – | CCC1OC(=O)C(C)C(=O)C(C)C(OC2OC(C)CC(N(C)C)C2O)C(C)(OC(=O)NCC=Cc2ccc(-c3ccccc3)nc2)CC(C)C(=O)C(C)C2CC(=O)OC12C (stereo not shown) [Compound 35]
>16 | 1 (≈ 1.13 µM) | 16 (≈ 18.1 µM) | 4 (≈ 4.52 µM) | 0.25 (≈ 0.283 µM) | – | – | – | – | – | CCC1OC(=O)C(C)C(=O)C(C)C(OC2OC(C)CC(N(C)C)C2O)C(C)(OC(=O)NCc2ccc(C=Cc3ccc4ccccc4n3)cc2)CC(C)C(=O)C(C)C2CC(=O)OC12C (stereo not shown) [Compound 36]
– | – | – | – | – | > 16 | 0.12 (≈ 0.145 µM) | 4 (≈ 4.85 µM) | 0.5 (≈ 0.606 µM) | 0.03 (≈ 0.0364 µM) | CC[C@H]1OC(=O)[C@H](C)C(=O)[C@H](C)[C@@H](OC2O[C@H](C)C[C@H](N(C)C)[C@H]2O)[C@](C)(OC(=O)NC/C=C/c2cn(-c3ncccn3)cn2)C[C@@H](C)C(=O)C(C)C2CC(=O)O[C@@]21C (stereo partly shown) [Compound 37]
>16 | 0.12 (≈ 0.148 µM) | 2 (≈ 2.47 µM) | 0.5 (≈ 0.618 µM) | 0.03 (≈ 0.0371 µM) | – | – | – | – | – | CCC1OC(=O)C(C)C(=O)C(C)C(OC2OC(C)CC(N(C)C)C2O)C(C)(OC(=O)NCC=Cc2ccc3nccnc3c2)CC(C)C(=O)C(C)C2CC(=O)OC12C (stereo not shown) [Compound 38]
16 (≈ 19.8 µM) | 0.12 (≈ 0.149 µM) | 4 (≈ 4.95 µM) | 0.5 (≈ 0.619 µM) | 0.03 (≈ 0.0371 µM) | – | – | – | – | – | CCC1OC(=O)C(C)C(=O)C(C)C(OC2OC(C)CC(N(C)C)C2O)C(C)(OC(=O)NCC=Cc2ccnc3ccccc23)CC(C)C(=O)C(C)C2CC(=O)OC12C (stereo not shown) [Compound 39]
16 (≈ 19.1 µM) | 0.12 (≈ 0.144 µM) | 1 (≈ 1.2 µM) | 0.25 (≈ 0.299 µM) | 0.03 (≈ 0.0359 µM) | – | – | – | – | – | CCC1OC(=O)C(C)C(=O)C(C)C(OC2OC(C)CC(N(C)C)C2O)C(C)(OC(=O)NCC=Cc2cncc(-c3ncccn3)c2)CC(C)C(=O)C(C)C2CC(=O)OC12C (stereo not shown) [Compound 40]

Compound | MIC (μg/mL) A [1] [µg/mL] | MIC (μg/mL) C [2] [µg/mL] | MIC (μg/mL) E [3] [µg/mL] | MIC (μg/mL) B [4] [µg/mL] | MIC (μg/mL) D [5] [µg/mL] | MIC ([1]; Escherichia coli) [mg/L] | MIC ([2]; Enterococcus faecalis) [mg/L] | MIC ([3]; Haemophilus influenzae) [mg/L] | MIC ([4]; Staphylococcus aureus) [mg/L] | MIC ([5]; Streptococcus pneumoniae) [mg/L]
CCC1OC(=O)C(C)C(=O)C(C)C(OC2OC(C)CC(N(C)C)C2O)C(C)(OC(=O)NCC=Cc2ccc3ncccc3c2)CC(C)C(=O)C(C)C2CC(=O)OC12C (stereo not shown) [Compound 27] | 16 (≈ 19.8 µM) | 0.06 (≈ 0.0743 µM) | 1 (≈ 1.24 µM) | 0.5 (≈ 0.619 µM) | 0.03 (≈ 0.0371 µM) | – | – | – | – | –

Reference: patent publication US6713455B2, “6-O-carbamate-11,12-lacto-ketolide antimicrobials” (Ortho-McNeil Pharmaceutical, Inc., priority 2001, dated 2004)
